Data: ChEMBL document CHEMBL1154918, “Cytotoxic chemical constituents from the roots of Cimicifuga foetida. [corrected]” (J Nat Prod, 2010)

Assays:
Format in all cases: functional, cell-based
HepG2 = experiment: Cytotoxicity against human HepG2 cells after 72 hrs by MTT assay; conditions: HepG2, 72 h
MKN-28 = experiment: Cytotoxicity against human MKN28 cells after 72 hrs by MTT assay; conditions: MKN-28, 72 h
HT-29 = experiment: Cytotoxicity against human HT-29 cells after 72 hrs by MTT assay; conditions: HT-29, 72 h
MCF7 = experiment: Cytotoxicity against human MCF7 cells after 72 hrs by MTT assay; conditions: MCF7, 72 h

Row | SMILES | IC50 (HepG2) | IC50 (MKN-28) | IC50 (HT-29) | IC50 (MCF7)
1 | C/C=C/C(=O)O[C@H]1[C@H](O[C@H]2CC[C@]34C[C@]35CC[C@]3(C)[C@H]6[C@H](C)C[C@H]7O[C@@]6(C[C@@H]7C(C)(C)OC(C)=O)[C@H](O)[C@@]3(C)[C@@H]5CC[C@H]4C2(C)C)OC[C@@H](O)[C@@H]1O | 6.37 µM | 53.8 µM | 78.5 µM | > 100 µM
2 | C/C=C/C(=O)O[C@@H]1CO[C@@H](O[C@H]2CC[C@]34C[C@]35CC[C@]3(C)[C@H]6[C@H](C)C[C@H]7O[C@@]6(C[C@@H]7C(C)(C)OC(C)=O)[C@H](O)[C@@]3(C)[C@@H]5CC[C@H]4C2(C)C)[C@H](O)[C@H]1O | 1.29 µM | > 100 µM | > 100 µM | > 100 µM
3 | CC(=O)O[C@@H]1[C@@H](O)[C@H](O[C@H]2CC[C@]34C[C@]35CC[C@]3(C)[C@H]6[C@H](C)C[C@H]7O[C@@]6(C[C@@H]7C(C)(C)OC(C)=O)[C@H](O)[C@@]3(C)[C@@H]5CC[C@H]4C2(C)C)OC[C@H]1O | 0.71 µM | > 100 µM | 28.9 µM | > 100 µM
4 | CC(=O)O[C@@H]1CO[C@@H](O[C@H]2CC[C@]34C[C@]35CC[C@]3(C)[C@H]6[C@H](C)C[C@H]7O[C@@]6(C[C@@H]7C(C)(C)OC(C)=O)[C@H](O)[C@@]3(C)[C@@H]5CC[C@H]4C2(C)C)[C@H](O)[C@H]1O | 2.8 µM | > 100 µM | 26.1 µM | > 100 µM
5 | CC(=O)O[C@@H]1C[C@@]23C[C@@]24CC[C@H](O[C@@H]2OC[C@@H](O)[C@H](O)[C@H]2O)C(C)(C)[C@@H]4CC[C@H]3[C@]2(C)[C@@H](O)[C@@]34C[C@H](C(C)(C)OC(C)=O)[C@@H](C[C@@H](C)[C@@H]3[C@@]12C)O4 | > 100 µM | > 100 µM | > 100 µM | 47.5 µM
6 | CC(=O)O[C@@H]1[C@@H](O)[C@H](O[C@H]2CC[C@]34C[C@]35C[C@@H](OC(C)=O)[C@]3(C)[C@H]6[C@H](C)C[C@]7(C[C@H](O)[C@@]8(C)O[C@@H]78)O[C@H]6C[C@@]3(C)[C@@H]5CC[C@H]4C2(C)C)OC[C@H]1O | 32.1 µM | 53.4 µM | 50.1 µM | > 100 µM
7 | CC(=O)O[C@@H]1[C@@H](O)[C@H](O[C@H]2CC[C@]34C[C@]35C[C@@H](OC(C)=O)[C@]3(C)[C@H]6[C@H](C)C[C@@]7(CC[C@]8(C)O[C@H]78)O[C@H]6C[C@@]3(C)[C@@H]5CC[C@H]4C2(C)C)OC[C@H]1O | 1.41 µM | > 100 µM | 35.7 µM | > 100 µM
8 | CC(=O)O[C@@H]1C[C@@]23C[C@@]24CC[C@H](O)C(C)(C)[C@@H]4CC[C@H]3[C@]2(C)C[C@@H]3O[C@@]4(CC[C@@]5(C)O[C@@H]45)C[C@@H](C)[C@@H]3[C@@]12C | 27.7 µM | 82.2 µM | 35.4 µM | > 100 µM
9 | CC(=O)OC(C)(C)[C@H]1C[C@@]23O[C@@H]1C[C@@H](C)[C@@H]2[C@@]1(C)CC[C@@]24C[C@@]25CC[C@H](O)C(C)(C)[C@@H]5CC[C@H]4[C@]1(C)[C@H]3O | 20.3 µM | > 100 µM | > 100 µM | > 100 µM
10 | CC(=O)O[C@@H]1C[C@@]23C[C@@]24CC[C@H](O)C(C)(C)[C@@H]4CC[C@H]3[C@]2(C)[C@@H](O)[C@@]34C[C@H](C(C)(C)O)[C@@H](C[C@@H](C)[C@@H]3[C@@]12C)O4 | 43.1 µM | > 100 µM | > 100 µM | > 100 µM
11 | C[C@@H]1C[C@H]2O[C@@]3(C[C@@H]2C(C)(C)O)[C@H](O)[C@@]2(C)[C@@H]4CC[C@H]5C(C)(C)[C@@H](O[C@@H]6OC[C@H](O)[C@H](O)[C@H]6O)CC[C@@]56C[C@@]46CC[C@]2(C)[C@@H]13 | 20.4 µM | > 100 µM | > 100 µM | > 100 µM
12 | C[C@@H]1C[C@H]2O[C@@]3(C[C@@H]2C(C)(C)O)[C@H](O)[C@@]2(C)[C@@H]4CC[C@H]5C(C)(C)C(=O)CC[C@@]56C[C@@]46CC[C@]2(C)[C@@H]13 | 5.51 µM | 72 µM | 15.4 µM | > 100 µM
13 | CC(=O)O[C@@H]1C[C@@]23C[C@@]24CC[C@H](O)C(C)(C)[C@@H]4CC[C@H]3[C@]2(C)C[C@@H]3O[C@]4(C[C@@H](C)[C@@H]3[C@@]12C)C[C@H](O)[C@@]1(C)O[C@@H]41 [ACTEINOL] | 2.56 µM | > 100 µM | > 100 µM | > 100 µM
14 | CC(=O)O[C@@H]1C[C@@]23C[C@@]24CC[C@H](O[C@@H]2OC[C@@H](O)[C@H](O)[C@H]2O)C(C)(C)[C@@H]4CC[C@H]3[C@]2(C)C[C@@H]3OC(C(=O)C(C)C)=C[C@@H](C)[C@@H]3[C@@]12C [ASIATICOSIDE A] | 4.02 µM | 54.8 µM | 49.4 µM | > 100 µM
15 | CC(C)(O)[C@@H]1Cc2c(cc3oc(CO)cc(=O)c3c2O)O1 [NORCIMIFUGIN] | 5.55 µM | > 100 µM | > 100 µM | > 100 µM
